# Source: ChEMBL document CHEMBL5465560, “Selectivity Literature for EUbOPEN Chemogenomic Library” (2024)
# What was measured:
# [1] = biological target: Mitogen-activated protein kinase 14 (Homo sapiens, UniProt Q16539); assay: Selectivity interaction (KinomeScan (DiscoverX)) EUB0001049a MAPK14; conditions: at 1 µM
# [2] = biological target: Ephrin type-A receptor 2 (Homo sapiens) (UniProt P29317); assay: Selectivity interaction (Kinase panel (literature)) EUB0001199aCl EPHA2; conditions: at 1 µM
# [3] = biological target: Protein arginine N-methyltransferase 5 (Homo sapiens, UniProt O14744); conditions: at 1 µM
# [4] = biological target: Serine/threonine-protein kinase Nek4 (Homo sapiens) (UniProt P51957); assay: Selectivity interaction (Kinase panel (KiNativ target engagement assay in Jurkat cells)) EUB0001635a NEK4; assay type: cell-based; conditions: at 1 µM
# [5] = biological target: Bromodomain-containing protein 3 (Homo sapiens) (UniProt Q15059); assay: Selectivity interaction (Human bromodomain panel (DSF assay)) EUB0000233b BRD3
# [6] = biological target: Prostaglandin G/H synthase 2 (Homo sapiens, UniProt P35354); assay: Selectivity interaction (COX-2 assay, human recombinant ) EUB0000877a PTGS2
# [7] = biological target: Serine/threonine-protein kinase OSR1 (Homo sapiens) (UniProt O95747); assay: Selectivity interaction (Kinase panel (DSF assay)) EUB0001559a OXSR1
# [8] = biological target: Serine/threonine-protein kinase/endoribonuclease IRE1 (Homo sapiens) (UniProt O75460); assay: Selectivity interaction (KinomeScan (DiscoverX)) EUB0000595a ERN1; conditions: at 10 µM
# [9] = test system: Tyrosine-protein kinase ABL1 (Homo sapiens), P00519 [F317L]; assay: Selectivity interaction (KinomeScan (DiscoverX)) EUB0000045b ABL1; conditions: at 10 µM
# [10] = biological target: T1, Serine/threonine-protein kinase ICK (Homo sapiens) (UniProt Q9UPZ9); conditions: at 10 µM
# T1 sequence (whole entry): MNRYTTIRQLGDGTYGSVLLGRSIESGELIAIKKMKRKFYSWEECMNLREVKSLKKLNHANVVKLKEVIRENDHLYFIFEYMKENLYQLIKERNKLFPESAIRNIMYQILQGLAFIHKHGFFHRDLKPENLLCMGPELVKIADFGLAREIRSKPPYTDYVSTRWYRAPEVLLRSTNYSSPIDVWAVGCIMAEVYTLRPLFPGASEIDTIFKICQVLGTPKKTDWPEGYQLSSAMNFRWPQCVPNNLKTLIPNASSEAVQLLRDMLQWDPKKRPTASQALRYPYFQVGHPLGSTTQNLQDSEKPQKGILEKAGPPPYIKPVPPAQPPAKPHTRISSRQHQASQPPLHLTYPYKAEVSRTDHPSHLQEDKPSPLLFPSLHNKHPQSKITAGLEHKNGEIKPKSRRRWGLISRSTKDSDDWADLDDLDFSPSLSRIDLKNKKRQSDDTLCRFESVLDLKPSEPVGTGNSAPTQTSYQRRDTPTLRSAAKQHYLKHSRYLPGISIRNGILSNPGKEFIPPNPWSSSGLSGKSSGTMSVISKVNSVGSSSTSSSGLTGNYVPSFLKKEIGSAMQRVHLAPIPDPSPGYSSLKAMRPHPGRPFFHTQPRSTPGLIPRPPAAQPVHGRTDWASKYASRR
# [11] = biological target: Citron Rho-interacting kinase (Homo sapiens) (UniProt O14578); assay: Selectivity interaction (KinomeScan (DiscoverX)) EUB0001619a CIT; conditions: at 1 µM
# [12] = biological target: Tyrosine-protein kinase FRK (Homo sapiens) (UniProt P42685); assay: Selectivity interaction (KinomeScan (DiscoverX)) EUB0001619a FRK; conditions: at 1 µM
# [13] = biological target: T2, Serine/threonine-protein kinase TBK1 (Homo sapiens) (UniProt Q9UHD2); assay: Selectivity interaction (ActivX KiNativ screen (ex vivo kinase selectivity in human PBMCs)) EUB0001619a TBK1; assay type: cell-based; conditions: PBMC, at 1 µM
# T2 sequence (whole entry): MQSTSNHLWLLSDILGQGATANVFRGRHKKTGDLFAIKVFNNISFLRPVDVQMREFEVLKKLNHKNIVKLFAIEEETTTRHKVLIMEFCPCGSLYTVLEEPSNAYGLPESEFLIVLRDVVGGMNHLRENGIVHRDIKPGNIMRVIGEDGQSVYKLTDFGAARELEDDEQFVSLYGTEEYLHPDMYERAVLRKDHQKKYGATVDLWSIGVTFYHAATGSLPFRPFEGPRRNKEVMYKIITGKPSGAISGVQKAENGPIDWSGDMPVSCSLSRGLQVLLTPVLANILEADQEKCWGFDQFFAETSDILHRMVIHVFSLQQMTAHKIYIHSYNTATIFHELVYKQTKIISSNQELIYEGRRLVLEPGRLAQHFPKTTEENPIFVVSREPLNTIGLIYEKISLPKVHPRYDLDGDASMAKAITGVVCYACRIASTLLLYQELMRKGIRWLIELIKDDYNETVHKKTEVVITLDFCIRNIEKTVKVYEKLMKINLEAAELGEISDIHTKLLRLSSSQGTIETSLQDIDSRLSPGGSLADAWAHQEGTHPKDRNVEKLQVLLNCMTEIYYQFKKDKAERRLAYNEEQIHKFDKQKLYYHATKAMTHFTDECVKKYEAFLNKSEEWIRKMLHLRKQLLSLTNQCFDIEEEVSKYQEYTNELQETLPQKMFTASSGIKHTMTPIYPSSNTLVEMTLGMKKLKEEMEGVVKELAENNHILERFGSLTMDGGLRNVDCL
# [14] = biological target: T3, Megakaryocyte-associated tyrosine-protein kinase (Homo sapiens) (UniProt P42679); assay: Selectivity interaction (KinomeScan (DiscoverX)) EUB0000655a MATK; conditions: at 10 µM
# T3 sequence (whole entry): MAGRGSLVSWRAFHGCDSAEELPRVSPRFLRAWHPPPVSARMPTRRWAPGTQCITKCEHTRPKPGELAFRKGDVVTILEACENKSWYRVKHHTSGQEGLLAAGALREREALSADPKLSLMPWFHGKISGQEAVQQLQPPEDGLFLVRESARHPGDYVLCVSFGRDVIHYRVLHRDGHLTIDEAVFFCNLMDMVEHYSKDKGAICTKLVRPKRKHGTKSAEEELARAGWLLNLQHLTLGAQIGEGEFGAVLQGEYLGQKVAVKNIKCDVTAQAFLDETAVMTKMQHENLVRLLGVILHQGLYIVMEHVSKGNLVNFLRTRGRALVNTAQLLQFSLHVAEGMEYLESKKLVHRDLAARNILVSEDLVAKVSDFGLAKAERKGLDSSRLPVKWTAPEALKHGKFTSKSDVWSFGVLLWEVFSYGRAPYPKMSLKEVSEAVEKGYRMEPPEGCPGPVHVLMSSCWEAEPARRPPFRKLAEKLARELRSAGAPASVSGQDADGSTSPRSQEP
# [15] = biological target: Interleukin-1 receptor-associated kinase 1 (Homo sapiens) (UniProt P51617); assay: Selectivity interaction (KinomeScan (DiscoverX)) EUB0000695a IRAK1; conditions: at 100 nM
# [16] = biological target: Mitogen-activated protein kinase kinase kinase 9 (Homo sapiens) (UniProt P80192); assay: Selectivity interaction (ProQinase) EUB0000171b MAP3K9
# Chain of Mitogen-activated protein kinase kinase kinase 9 (Homo sapiens) (P80192 whole entry, looked up): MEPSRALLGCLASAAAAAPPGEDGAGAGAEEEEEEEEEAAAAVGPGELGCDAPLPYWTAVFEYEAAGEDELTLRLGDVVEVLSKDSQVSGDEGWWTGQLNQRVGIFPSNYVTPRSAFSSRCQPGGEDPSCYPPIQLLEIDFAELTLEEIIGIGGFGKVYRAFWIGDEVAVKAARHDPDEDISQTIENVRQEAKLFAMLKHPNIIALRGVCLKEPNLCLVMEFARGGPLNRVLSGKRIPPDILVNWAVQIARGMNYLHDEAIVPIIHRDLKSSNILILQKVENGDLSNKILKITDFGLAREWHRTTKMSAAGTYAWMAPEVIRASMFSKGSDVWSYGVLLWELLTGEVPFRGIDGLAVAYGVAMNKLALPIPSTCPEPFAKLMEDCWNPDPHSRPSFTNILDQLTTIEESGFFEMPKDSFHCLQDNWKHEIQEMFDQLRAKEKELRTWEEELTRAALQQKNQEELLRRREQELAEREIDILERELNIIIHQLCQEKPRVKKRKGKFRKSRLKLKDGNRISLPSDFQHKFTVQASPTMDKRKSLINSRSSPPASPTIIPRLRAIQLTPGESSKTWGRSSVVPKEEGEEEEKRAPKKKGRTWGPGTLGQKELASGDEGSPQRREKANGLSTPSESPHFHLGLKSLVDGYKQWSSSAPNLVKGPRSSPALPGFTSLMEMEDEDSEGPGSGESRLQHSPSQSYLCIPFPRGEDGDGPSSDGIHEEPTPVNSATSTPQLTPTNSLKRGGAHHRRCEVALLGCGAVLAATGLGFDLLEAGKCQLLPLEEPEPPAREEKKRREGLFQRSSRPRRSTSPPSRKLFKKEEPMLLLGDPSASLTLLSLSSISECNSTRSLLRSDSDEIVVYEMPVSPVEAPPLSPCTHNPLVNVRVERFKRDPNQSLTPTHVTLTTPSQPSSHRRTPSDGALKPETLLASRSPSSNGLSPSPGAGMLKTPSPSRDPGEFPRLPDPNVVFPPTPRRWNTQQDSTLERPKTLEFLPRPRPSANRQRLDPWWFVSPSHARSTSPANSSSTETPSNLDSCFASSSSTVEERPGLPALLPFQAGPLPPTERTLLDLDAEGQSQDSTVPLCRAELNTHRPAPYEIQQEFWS
# Chain of Protein arginine N-methyltransferase 5 (O14744 whole entry): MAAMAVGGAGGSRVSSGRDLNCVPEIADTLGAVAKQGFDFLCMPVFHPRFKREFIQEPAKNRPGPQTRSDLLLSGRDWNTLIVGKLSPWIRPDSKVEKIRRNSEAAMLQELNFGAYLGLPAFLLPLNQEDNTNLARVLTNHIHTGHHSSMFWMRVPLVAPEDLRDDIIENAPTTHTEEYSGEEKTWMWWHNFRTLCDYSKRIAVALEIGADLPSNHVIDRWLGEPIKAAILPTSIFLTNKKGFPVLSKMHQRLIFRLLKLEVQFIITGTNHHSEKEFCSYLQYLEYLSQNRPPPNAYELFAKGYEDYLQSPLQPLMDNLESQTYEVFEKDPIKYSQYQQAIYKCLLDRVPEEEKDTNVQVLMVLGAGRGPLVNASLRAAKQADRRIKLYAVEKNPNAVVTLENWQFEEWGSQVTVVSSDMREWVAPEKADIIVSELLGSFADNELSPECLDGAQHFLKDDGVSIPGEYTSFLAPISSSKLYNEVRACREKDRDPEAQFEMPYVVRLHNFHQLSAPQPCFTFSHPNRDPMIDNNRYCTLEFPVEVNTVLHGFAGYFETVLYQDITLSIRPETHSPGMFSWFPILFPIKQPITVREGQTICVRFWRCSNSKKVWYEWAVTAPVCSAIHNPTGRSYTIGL
# Chain of Ephrin type-A receptor 2 (Homo sapiens) (P29317 whole entry): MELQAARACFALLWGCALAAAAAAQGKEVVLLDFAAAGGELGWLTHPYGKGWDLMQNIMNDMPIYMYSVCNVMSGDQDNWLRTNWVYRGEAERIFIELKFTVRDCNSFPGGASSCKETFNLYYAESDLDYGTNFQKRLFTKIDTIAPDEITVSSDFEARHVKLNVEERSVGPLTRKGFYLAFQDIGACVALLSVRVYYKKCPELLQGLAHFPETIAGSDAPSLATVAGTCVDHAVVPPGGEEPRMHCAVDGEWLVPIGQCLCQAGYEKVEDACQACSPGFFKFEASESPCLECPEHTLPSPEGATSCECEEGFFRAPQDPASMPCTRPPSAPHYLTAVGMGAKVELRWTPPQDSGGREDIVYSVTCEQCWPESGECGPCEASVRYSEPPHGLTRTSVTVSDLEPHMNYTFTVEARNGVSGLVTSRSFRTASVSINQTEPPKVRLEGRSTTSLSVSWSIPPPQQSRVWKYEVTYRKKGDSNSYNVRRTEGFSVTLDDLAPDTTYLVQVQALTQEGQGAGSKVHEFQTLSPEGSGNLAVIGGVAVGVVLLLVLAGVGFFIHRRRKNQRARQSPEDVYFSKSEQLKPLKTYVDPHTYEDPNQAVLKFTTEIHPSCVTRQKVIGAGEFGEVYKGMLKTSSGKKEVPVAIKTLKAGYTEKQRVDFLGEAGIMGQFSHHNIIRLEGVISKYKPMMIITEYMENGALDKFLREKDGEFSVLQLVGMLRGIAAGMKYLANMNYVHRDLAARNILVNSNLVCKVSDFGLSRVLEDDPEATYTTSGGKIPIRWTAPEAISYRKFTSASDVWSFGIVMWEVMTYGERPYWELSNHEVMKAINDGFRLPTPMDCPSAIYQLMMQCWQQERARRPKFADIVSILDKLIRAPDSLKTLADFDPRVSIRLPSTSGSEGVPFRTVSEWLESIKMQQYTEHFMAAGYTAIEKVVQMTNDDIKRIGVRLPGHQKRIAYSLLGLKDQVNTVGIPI
# Chain of Serine/threonine-protein kinase/endoribonuclease IRE1 (Homo sapiens) (O75460 19-977 limits assumed): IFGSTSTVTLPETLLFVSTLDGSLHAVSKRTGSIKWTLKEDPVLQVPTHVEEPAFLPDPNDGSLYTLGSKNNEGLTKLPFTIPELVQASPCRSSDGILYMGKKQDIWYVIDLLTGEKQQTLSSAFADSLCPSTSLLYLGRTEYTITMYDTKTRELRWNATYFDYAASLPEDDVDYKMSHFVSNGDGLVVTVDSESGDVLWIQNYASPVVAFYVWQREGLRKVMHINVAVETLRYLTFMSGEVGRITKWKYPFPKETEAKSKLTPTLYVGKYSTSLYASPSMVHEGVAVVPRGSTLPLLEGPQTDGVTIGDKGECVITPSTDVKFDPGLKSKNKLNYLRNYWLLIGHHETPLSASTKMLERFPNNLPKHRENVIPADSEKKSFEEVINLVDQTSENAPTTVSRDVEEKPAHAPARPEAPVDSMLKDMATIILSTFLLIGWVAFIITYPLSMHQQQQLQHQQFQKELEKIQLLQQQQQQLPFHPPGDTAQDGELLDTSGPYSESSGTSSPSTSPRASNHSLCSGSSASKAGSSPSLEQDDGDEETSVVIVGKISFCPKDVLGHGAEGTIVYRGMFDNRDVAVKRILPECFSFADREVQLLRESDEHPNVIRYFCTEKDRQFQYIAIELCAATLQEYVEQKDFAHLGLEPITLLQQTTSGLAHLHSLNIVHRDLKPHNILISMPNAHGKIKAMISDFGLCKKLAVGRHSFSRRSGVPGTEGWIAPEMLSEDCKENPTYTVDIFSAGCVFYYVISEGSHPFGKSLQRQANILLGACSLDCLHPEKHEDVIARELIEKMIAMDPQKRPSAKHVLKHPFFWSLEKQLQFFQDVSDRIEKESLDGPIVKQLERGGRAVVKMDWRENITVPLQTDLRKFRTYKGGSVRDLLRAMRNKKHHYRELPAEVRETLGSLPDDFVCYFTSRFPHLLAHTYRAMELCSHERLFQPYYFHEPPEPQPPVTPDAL
# Chain of Interleukin-1 receptor-associated kinase 1 (Homo sapiens) (P51617 whole entry, looked up): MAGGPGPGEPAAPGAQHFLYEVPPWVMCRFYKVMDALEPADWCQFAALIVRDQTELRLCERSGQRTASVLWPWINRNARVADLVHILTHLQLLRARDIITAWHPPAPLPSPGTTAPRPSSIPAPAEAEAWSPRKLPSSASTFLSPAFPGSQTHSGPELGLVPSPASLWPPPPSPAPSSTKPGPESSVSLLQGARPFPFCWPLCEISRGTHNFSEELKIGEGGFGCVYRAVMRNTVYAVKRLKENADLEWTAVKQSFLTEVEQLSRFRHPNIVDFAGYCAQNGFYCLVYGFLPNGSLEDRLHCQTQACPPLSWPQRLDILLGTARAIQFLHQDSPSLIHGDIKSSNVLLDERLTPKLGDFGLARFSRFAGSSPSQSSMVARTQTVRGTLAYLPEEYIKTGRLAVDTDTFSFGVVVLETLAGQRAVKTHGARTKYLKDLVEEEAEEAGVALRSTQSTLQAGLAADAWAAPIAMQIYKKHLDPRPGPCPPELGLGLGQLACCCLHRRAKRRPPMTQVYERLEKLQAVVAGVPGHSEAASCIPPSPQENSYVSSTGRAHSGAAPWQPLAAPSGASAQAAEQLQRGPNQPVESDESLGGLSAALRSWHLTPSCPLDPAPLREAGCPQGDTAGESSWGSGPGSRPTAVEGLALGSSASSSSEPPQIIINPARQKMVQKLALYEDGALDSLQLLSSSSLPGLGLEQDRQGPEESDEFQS
# Chain of Mitogen-activated protein kinase 14 (Q16539 whole entry): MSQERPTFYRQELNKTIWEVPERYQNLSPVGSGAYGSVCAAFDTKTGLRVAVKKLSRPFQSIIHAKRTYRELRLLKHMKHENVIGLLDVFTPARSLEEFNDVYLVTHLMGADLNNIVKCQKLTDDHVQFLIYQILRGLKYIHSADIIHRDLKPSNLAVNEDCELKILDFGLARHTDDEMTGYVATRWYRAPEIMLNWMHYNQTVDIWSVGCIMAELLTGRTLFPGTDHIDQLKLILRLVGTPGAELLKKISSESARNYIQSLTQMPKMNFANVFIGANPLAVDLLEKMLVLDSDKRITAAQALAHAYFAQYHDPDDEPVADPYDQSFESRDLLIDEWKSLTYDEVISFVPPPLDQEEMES
smiles,measurement,setting,value
COc1cc(Nc2nc(C)cc(-c3cnn4nc(OC)ccc34)n2)cc(C(F)(F)F)c1,% of control,[1],87%
CN1Cc2nccc(-c3cn(C)nc3-c3ccc(F)cc3)c2C1=O,% of inhibition,[2],4%
CNCCN1CCC(c2cc(CN(C)C(=O)c3cccc(Oc4ccccc4)c3)ccn2)CC1,% activity,[3],> 90%
C=CC(=O)Nc1ccc(C(=O)Nc2[nH]nc3c2CN(C(=O)N[C@H](CN(C)C)c2ccccc2)C3(C)C)cc1,% of engagement,[4],0.8%
CN(C)CCCOc1ccc(-c2cc(NCCCn3cccn3)nc(S(C)(=O)=O)n2)cc1,dTM,[5],< 2 K
CCC(=O)N1CC[C@H](Nc2ncnc3c2CN(c2cnc(OC)c(C(F)(F)F)c2)CC3)C1 [LENIOLISIB],IC50,[6],> 30 µM
CN(C(=O)c1cnn2cccnc12)c1cc2c(cc1N1CCOCC1)C(=O)N(C[C@@H](F)C(C)(C)O)C2,dTM,[7],0.3 K
COCC(=O)NC/C=C/c1ccc2ncnc(Nc3ccc(Oc4ccc(C)nc4)c(C)c3)c2c1 [CP-724714],% of control,[8],82%
C=CC(=O)Nc1cc(-n2c(=O)ccc3cnc4ccc(-c5ccc(NS(C)(=O)=O)cc5)cc4c32)ccc1C,% of control,[9],75%
Cc1cc([C@@H](C)Nc2ccccc2C(=O)O)c2nc(N3CCOCC3)cc(=O)n2c1 [AZD-6482],% of control,[10],100%
N#Cc1cccc(-c2c[nH]c3ncnc(N4CCOCC4)c23)c1,% of control,[11],100%
same,% of control,[12],88%
same,% of inhibition,[13],19%
CN(C)CCOc1ccc(-c2nc(-c3ccncc3)c(-c3ccc4c(c3)CC/C4=N\O)[nH]2)cc1,% of control,[14],100%
Cc1cc(F)c(C(=O)Nc2cccc(-c3nncn3C(C)C)n2)cc1-n1cnc(C2CC2)c1,% of control,[15],96%
C=CC(=O)Nc1cccc(C(=O)Nc2ccc(Nc3cc(-c4[nH]c(SC)nc4C)ccn3)cc2)c1,% of control,[16]; at 1 µM,80%
same,% of control,[16]; at 5 µM,45%
